Tests used:
OCM HCC cell lines = assay: MTT chemotherapeutic screening, OCM HCC cell line; type: cell-based, pig; settings: 72 hours exposure
Protocol: (§1) Cells (1×1O^4 cells/well) were cultured in 200 ? DMEM+10% FBS overnight in 96 well plates. The following day, culture media was replaced with fresh media supplemented with one of 10 varying concentrations of each chemotherapeutic compound. Sorafenib, doxorubicin, mitomycin C, and 5-Fluorouracil (5-FU) were prepared from a stock solution in a 10-point serial dilution curve, in DMSO, and added at 1:100 to culture media (final concentration of DMSO was 1% for all conditions). As platinum complexes are inactivated by DMSO, cisplatin stock solution was 3.33 mM in water and the stock was used to prepare all dilutions. Sorafenib and mitomycin C were tested from 0.5-100 μM, doxorubicin from 0.1-20 μM, cisplatin from 1-200 μM, and 5-FU from 1-500 μM in order to assay concentrations that are relevant for clinically used dosages and that allow for calculation of the half maximal inhibitory concentration (IC50) for each compound. 96 well plates with each cell line and chemotherapeutic concentration in triplicate were prepared for time points 0, 24, 48, and 72 hours to observe a dose response overtime. For the 3-(4,5-dimethylthiazol-2-yl)-2,5-diphenyltetrazolium bromide (MTT) assay, 100 ? of fresh media was replaced at each time point, 10 ? of 5 mg/ml MTT added to each well and incubated for 4 hours at 37° C. 100 ? for an SDS/HCl solution (1 g SDS/10 ml 0.1 HCl) was then added to solubilize the resulting formazan dye and the plates incubated an additional 4 h at 37° C. Absorbance at 570 nm was read using a BioTek 800 TS Absorbance Reader (BioTek). Results are expressed in percentage, relative to the absorbance values for each cell line at time 0.
(§2) OCM and human HCC cell lines display similar sensitivities to four FDA approved cytostatic (sorafenib) and cytotoxic (doxorubicin, cisplatin, mitomycin C) chemotherapeutic agents used to treat HCC clinically, either systemically or via transarterial chemoembolization (TACE), and one shown to be ineffective (5-FU) in clinical settings.

Hepal-6 = assay: MTT chemotherapeutic screening, murine HCC cell line Hepal-6; type: cell-based; settings: for IC50: Hepal-6, MTT, 72 hours exposure
Protocol: as §1, §2

HepG2 = assay: MTT chemotherapeutic screening, human HCC cell line HepG2; type: cell-based; settings: 72 hours exposure
Protocol: as §1, §2

[1] = In vivo PK and tumor specific uptake of systemically administered DON prodrugs in Oncopigs bearing SQ soft-tissue sarcomas; set-up: species or system pig; settings: for AUC / Cmax: systemically administered prodrug
Excerpt: (§3) OCM soft-tissue sarcoma cell lines were used to assess tumor cell specific uptake and conversion of 6-Diazo-5 -oxo-1-norleucine (DON) prodrugs. […] In addition, in vivo investigation of tumor specific uptake and temporal PK of systemically administered prodrugs in Oncopigs bearing SQ soft-tissue sarcomas validated the capability to employ the tumor-bearing OCM for chemotherapy drug pharmacologic studies (FIGS. 13A and 13B and Table 8).

[2] = test system: Oncopig soft tissue sarcoma tumor cells; assay: In vitro partitioning and conversion of DON prodrugs to DON in Oncopig soft tissue sarcoma tumor cells; type: in vitro ADME, pig; settings: FIGS. 12A-12D
Excerpt: FIGS. 12A-12D are graphs showing in vitro partitioning and conversion of 6-diazo-5-oxo-1-norleucine (DON) prodrugs to DON in Oncopig soft tissue sarcoma tumor cells vs. plasma. […] However, when delivered as a prodrug (FIGS. 12B-12D), the level of active compound (DON, y-axis) is much higher in the cells than the cell supernatant.
as §3

Compound | IC50 (OCM HCC cell lines; Sus scrofa) | IC50 (Hepal-6; Mus musculus) | IC50 (HepG2; Homo sapiens) | IC50 (OCM HCC cell lines) | IC50 (Hepal-6) | IC50 (HepG2) | also measured
O=c1[nH]cc(F)c(=O)[nH]1 [5-FU, 5-Fluorouracil] | 14500 nM | 1820 nM | 18300 nM |  |  |  | higher susceptibility of murine HCC lines versus OCM and human lines (Hepal-6; Hepal-6 compared with OCM and human HCC lines): 10 fold
N.N.[Cl][Pt][Cl] [Cisplatin, cisplatin] |  |  |  | 5380 nM | 2160 nM | 5600 nM | 
[N-]=[N+]=CC(=O)CC[C@H](N)C(=O)O [DON, 6-diazo-5-oxo-1-norleucine] |  |  |  |  |  |  | Tumor:Plasma AUC ratio [1]: 1.5; selective in vivo partitioning (tumor vs. plasma) ([1]; FIGS. 13A and 13B): selective in vivo partitioning of DON to tumor cells; AUC ([1]; Plasma): 2852 h*pmol/ml or g; Cmax ([1]; Plasma): 530 pmol/ml or g; AUC ([1]; Tumor): 4238 h*pmol/ml or g; Cmax ([1]; Tumor): 1019 pmol/ml or g; level of DON in cells vs. cell supernatant [2]: high levels are observed in the cell supernatant, with small amounts entering the cells
COc1cccc2c1C(=O)c1c(O)c3c(c(O)c1C2=O)C[C@@](O)(C(=O)CO)C[C@@H]3O[C@H]1C[C@H](N)[C@H](O)[C@H](C)O1 [Doxorubicin, doxorubicin] | 80 nM | 530 nM | 230 nM |  |  |  | 
CO[C@@]12[C@H](COC(N)=O)C3=C(C(=O)C(C)=C(N)C3=O)N1C[C@@H]1N[C@@H]12 [Mitomycin C, mitomycin C] |  |  |  | 480 nM | 610 nM | 570 nM | 
CNC(=O)c1cc(Oc2ccc(NC(=O)Nc3ccc(Cl)c(C(F)(F)F)c3)cc2)ccn1 [Sorafenib] | 10400 nM | 4980 nM | 8860 nM |  |  |  | 
